For orientation: pIC50 means the negative decadic logarithm of the IC50, by convention in mol/L.

pIC50: −log10 of the molar value. The source made the active and inactive calls. The rule behind the calls is not given here.

Results on 26 molecules are retold here after ChEMBL document CHEMBL1759878, “Design of semisynthetic analogues and 3D-QSAR study of eunicellin-based diterpenoids as prostate cancer migration and invasion inhibitors” (Eur J Med Chem, 2011).

Holding throughout (type): functional, cell-based
The subject of assay [1] is PC-3. Kind of assay: Antimigratory activity against human PC3 cells assessed as inhibition of cell migration after 24 hrs by wound healing assay. The conditions noted are these: PC-3, 24 h; for pIC50: read-out: IC50; for IC50: read-out: pIC50 (converted).
The subject of assay [2] is PC-3. Kind of assay: Antiinvasive activity against human PC3 cells assessed as inhibition of cells invaded across basement membrane extract at 50 uM by calcein-acetomethylester fluorescence analysis.
In assay [3] the test system is PC-3. Kind of assay: Antimigratory activity against human PC3 cells assessed as migrated cells measured under microscope at 37 uM after 24 hrs by wound healing assay relative to control.

For `C=C1C[C@H]2O[C@H]([C@H]3[C@@H]2[C@]2(CC[C@@H]3C(C)C)CO2)[C@](C)(O)CC[C@@H]1OC(=O)N(Cc1ccccc1)C(=O)NCc1ccccc1`, in the assay on PC-3 [1], the pIC50 is 4.15 and the IC50 is 70 µM.
For `C=C1CC[C@H](C(C)C)[C@@H]2[C@H]1[C@H]1CC(=C)[C@@H](OC(=O)N(Cc3ccccc3)C(=O)NCc3ccccc3)CC[C@@](C)(O)[C@@H]2O1`, in the assay on PC-3 [1], the pIC50 was 4.52 and the IC50 is 30 µM. In addition, the result in the assay with PC-3 [2] was Active.
Take `C=C1CC[C@H](C(C)C)[C@@H]2[C@H]1[C@H]1CC(=C)[C@]3(O)CC[C@@](C)(O3)[C@@H]2O1` [PACHYCLADIN D]: in the assay with PC-3 [1], the pIC50 was 4.12 and the IC50 is 75 µM.
On to `CC(=O)O[C@]1(C)CC[C@H](C(C)C)[C@@H]2[C@H]1[C@H]1C[C@](C)(O)[C@@H](O)CC[C@@](C)(OC(C)=O)[C@@H]2O1` [KLYSIMPLEXIN G], for which, in the assay on PC-3 [1], the negative logarithm of the IC50 (pIC50) was 4.80 and the IC50 was 16 µM.
Consider `C=C1CC[C@H](C(C)C)[C@@H]2[C@H]1[C@H]1C[C@](C)(O)[C@@H](O)CC[C@@](C)(O)[C@@H]2O1` [SCLEROPHYTIN A], for which, in the assay with PC-3 [1], the negative logarithm of the IC50 (pIC50) was 4.08 and the IC50 was 84 µM.
`C=C1CC[C@H](C(C)C)[C@@H]2[C@H]1[C@H]1CC(=C)[C@@H](OC(=O)Nc3ccccc3)CC[C@@](C)(O)[C@@H]2O1`: in the assay on PC-3 [1], the negative-log IC50 (pIC50) is 4.24 and the IC50 is 57 µM.
Regarding `CC(=O)O[C@]1(C)CC[C@H](C(C)C)[C@@H]2[C@H]1[C@H]1C[C@]3(C)CCC[C@@](C)(O3)[C@@H]2O1`, in the assay on PC-3 [1], the negative-log IC50 (pIC50) was 4.28 and the IC50 was 52 µM.
Take `C=C1C[C@H]2O[C@H]([C@@H]3[C@@H](C(C)C)[C@H](O)C[C@@](C)(OC(C)=O)[C@@H]32)[C@](C)(OC(C)=O)CC[C@@H]1O` [KLYSIMPLEXIN E]: in the assay with PC-3 [1], the pIC50 was 3.90 and the IC50 was 125 µM.
Turning to `C=C1CC[C@H](C(C)C)[C@@H]2[C@H]1[C@H]1CC(=C)[C@@H](OC(=O)NCCCCCCCC)CC[C@@](C)(O)[C@@H]2O1`, in the assay with PC-3 [1], the negative-log IC50 (pIC50) is 3.91 and the IC50 is 122 µM.
Turning to `C=C1CC[C@H](C(C)C)[C@@H]2[C@H]1[C@H]1C[C@](C)(O)[C@@H](OCC)CC[C@@](C)(O)[C@@H]2O1` [PATAGONICOL], in the assay with PC-3 [1], the pIC50 is 4.12 and the IC50 is 76 µM.
The like results for `C=C1CC[C@H](C(C)C)[C@@H]2[C@H]1[C@H]1CC(=C)[C@@H](OC(=O)NCCCCC)CC[C@@](C)(O)[C@@H]2O1` were, in that order, 4.37 and 43 µM.
Take `CCCC(=O)O[C@]1(C)CC[C@H](C(C)C)[C@@H]2[C@H]1[C@H]1C[C@](C)(O)[C@@H](O)CC[C@@](C)(OC(C)=O)[C@@H]2O1` [PACHYCLADIN A]: in the assay with PC-3 [1], the pIC50 was 5.30 and the IC50 was 5 µM.
On to `C=C1C[C@H]2O[C@H]([C@H]3[C@@H]2[C@]2(CC[C@@H]3C(C)C)CO2)[C@](C)(O)CC[C@@H]1O` (relative stereo), for which, in the assay on PC-3 [1], the pIC50 was 3.80 and the IC50 was 160 µM. In addition, the outcome in the assay with PC-3 [2] was Active.
In the case of `C=C1CC[C@H](C(C)C)[C@@H]2[C@H]1[C@H]1CC(=C)[C@@H](OC(C)=O)CC[C@@](C)(O)[C@@H]2O1` [PACHYCLADIN C], in the assay on PC-3 [1], the pIC50 was 4.25 and the IC50 is 56 µM.
For the molecule `C=C1C[C@H]2O[C@H]([C@H]3[C@@H]2[C@](C)(OC(C)=O)CC[C@@H]3C(C)C)[C@@]2(C)CC[C@]1(O)O2` [PACHYCLADIN E], in the assay on PC-3 [1], the pIC50 is 4.19 and the IC50 was 64 µM.
As for `C=C1C[C@H]2O[C@H]([C@@H]3[C@@H](C(C)C)[C@H](O)C[C@@](C)(OC(=O)CCC)[C@@H]32)[C@](C)(OC(C)=O)CC[C@@H]1O` [PACHYCLADIN B], in the assay on PC-3 [1], the negative-log IC50 (pIC50) is 4.06 and the IC50 was 88 µM.
In the case of `C=CCNC(=O)N(CC=C)C(=O)N(CC=C)C(=O)O[C@H]1CC[C@@](C)(O)[C@@H]2O[C@H](CC1=C)[C@H]1C(=C)CC[C@H](C(C)C)[C@H]12`, in the assay on PC-3 [1], the pIC50 is 4.01 and the IC50 is 97 µM.
The like results for `C=C1CC[C@H](C(C)C)[C@@H]2[C@H]1[C@H]1CC(=C)[C@@H](O)CC[C@@](C)(OC(C)=O)[C@@H]2O1` were, in that order, 4.36 and 44 µM.
`C=C1CC[C@H](C(C)C)[C@@H]2[C@H]1[C@H]1CC(=C)[C@@H](OC(=O)NCCCCl)CC[C@@](C)(O)[C@@H]2O1`: in the assay on PC-3 [1], the negative-log IC50 (pIC50) was 4.17 and the IC50 was 67 µM.
For the molecule `C=C1CC[C@H](C(C)C)[C@@H]2[C@H]1[C@H]1C[C@](C)(O)[C@@H](O)CC[C@@](C)(OC(C)=O)[C@@H]2O1` [SCLEROPHYTIN B], in the assay on PC-3 [1], the pIC50 was 3.80 and the IC50 was 159 µM.
With `C=C1CC[C@H](C(C)C)[C@@H]2[C@H]1[C@H]1C/C(C)=C\CC[C@@](C)(O)[C@@H]2O1` [6Z-CLADIELLIN], in the assay on PC-3 [1], the pIC50 was 4.08 and the IC50 was 84 µM.
As for `C=C1CC[C@H](C(C)C)[C@@H]2[C@H]1[C@H]1CC(=C)[C@@H](OC(=O)NCCCC)CC[C@@](C)(O)[C@@H]2O1`, in the assay with PC-3 [1], the pIC50 is 4.43 and the IC50 was 37 µM. The result in the assay on PC-3 [3] was Active. Also, in the assay with PC-3 [2], the result was Active.
With `C=C1CC[C@H](C(C)C)[C@@H]2[C@H]1[C@H]1C[C@](C)(O)[C@@H](OC)CCC(C)(O)[C@@H]2O1` (single isomer, unassigned) [SCLEROPHYTIN F METHYL ETHER], in the assay on PC-3 [1], the negative logarithm of the IC50 (pIC50) is 4.23 and the IC50 is 59 µM.
The like results for `C=C1CC[C@H](C(C)C)[C@@H]2[C@H]1[C@H]1CC(=C)[C@@H](OC(C)=O)CC[C@@](C)(OC(C)=O)[C@@H]2O1` were, in that order, 4.44 and 36 µM.
With `C=C1C[C@H]2O[C@H]([C@H]3[C@@H]2[C@]2(CC[C@@H]3C(C)C)CO2)[C@](C)(O)CC[C@@H]1OC(=O)NCCCC` (relative stereo), in the assay on PC-3 [1], the pIC50 was 4.05 and the IC50 was 90 µM.
As to `C=C1CC[C@H](C(C)C)[C@@H]2[C@H]1[C@@H]1CC(=C)[C@@H](O)CC[C@](C)(O)[C@H]2O1` [CLADIELLISIN], in the assay with PC-3 [1], the pIC50 was 4.06 and the IC50 is 88 µM. In the assay with PC-3 [2], the result was Active.
